Source: patent US20060270640A1, “Method of preventing, medicating, and/or treating hypocalcemia of domestic mammal” (Mercian Corporation, priority 2004, published 2006)

Key:
[1] = Intravaginal administration of VitAD3E to cows, biochemical changes in blood (Comparative Example 1); conditions: intravaginal VitA 10,000,000 IU + VitD3 5,000,000 IU + VitE 920 IU in 8 mL with 20% ethanol per cow; two Holstein cows
Procedure: Vitamin A, vitamin D3, and vitamin E were administered to the vaginal cavities of cows to observe biochemical changes in blood after administration in the same manner as in Example 1 except that test drugs, test contents, and biochemical examination items of blood were as described in the following (1) to (3).
• Vitamin A (VitA; bulk for drug production, liquid); • Vitamin D3 (VitD3; bulk for drug production, liquid); and • Vitamin E (VitE; bulk for drug production, liquid). (2) Test Contents • VitAD3E test: intravaginal administration of VitA (10,000,000 IU)+VitD3 (5,000,000 IU)+VitE (920 IU) brought up to 8 mL per cow with 20% ethanol. (3) Biochemical Examination Items of Blood • Control test: VitA, 25-hydroxyvitamin D3 (25-OHD3), VitE, calcium (Ca), inorganic phosphorus (iP), and magnesium (Mg); and • VitAD3E test: VitA, 25-OHD3, and VitE.
The shifts of VitA, 25-OHD3, and VitE concentrations in blood by the intravaginal administration of VitAD3E were observed by the above-described procedure.

[2] = format: in vivo, cow; conditions: intravaginal 1 μg/kg 1α-VD3; two Holstein cows
Excerpt: Biochemical changes in blood were observed by administering 1α-hydroxyvitamin D3 to the vaginal cavities of cows.
Test animals used were two Holstein dairy cows (Cow A and Cow B) described below. During a test period, the cows were raised by the free grazing of hay (free water drinking) in a field paddock as well as feeding with 2 kg/day of formula feed (64.1% TDN, 13.6% CP, 0.2% Ca, 0.09% Mg, and 1.39% K in DM).
Cow A: 35months old, female, single birth, ovariectomized, 560 kg
Cow B: 34months old, female, single birth, ovariectomized, 580 kg
The following test drug was used: • 1α-hydroxyvitamin D3 (1α-VD3; manufactured by Nisshin Pharma Co., Ltd., powder).
Test contents and schedules were as follows: • 1. Control test: intravaginal administration of 4 mL of 20% ethanol (for 1 week); and • 2. 1α-VD3 test: intravaginal administration of 1 μg/kg (by body weight) of 1α-VD3 dissolved in 4 mL of 20% ethanol (for 2 weeks).
Intravaginal administration was performed by the following procedure:
The above-described reagent was prepared on ice water and then administered, with a 10-mL plastic syringe, to a deep region in the vagina of the test cows previously allowed to urinate and vulva skin was immediately closed with an instant adhesive.
In each test, blood was collected immediately before administration (0 hour) and at 0.5, 1, 2, 3, 6, 12, 24, 48, and 72 hours (hrs) after administration. […]

Molecule	intravaginal absorption of the drug [1]	effect on Ca metabolism [2]
Vitamin E	No evidence that administered drugs were absorbed from the vaginal wall was confirmed	–
C=C1/C(=C\C=C2/CCC[C@]3(C)[C@@H]([C@H](C)CCCC(C)C)CC[C@@H]23)C[C@@H](O)C[C@@H]1O [1α-VD3, 1α-hydroxyvitamin D3]	–	affecting Ca metabolism
C=C1CC[C@H](O)C/C1=C/C=C1\CCC[C@]2(C)[C@@H]([C@H](C)CCCC(C)C)CC[C@@H]12 [vitamin D3, Vitamin D3]	No evidence that administered drugs were absorbed from the vaginal wall was confirmed	–
